The values below come from ChEMBL document CHEMBL1201862, “PubChem BioAssay data set” (2004).

Some test systems named below: DMS-273; HCT-15; LOX IMVI; M19-MEL; NCI-H23; NCI-H460; OVCAR-3; RPMI-8226; SF-539; SK-OV-3; SN12C; SNB-19; SNB-78; SW-620; U-251; UACC-62; A498; CAKI-1; MDA-MB-435; MDA-N.
Holding throughout (test): NCI anticancer screen, dose series, 48 h

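Test compounds were applied to cells in 96-well plates for 48 hours at 5 doses. GI50 is the concentration that inhibits growth by half.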 Active and inactive are the calls of the source. No stated cut-off is given here; in the data, active = GI50 up to about 1.1 µM and inactive = higher.

As for `CN(C)CCNC(=O)Cc1ccccc1Nc1c(Cl)cccc1Cl`, the GI50 in the test on DMS-273 is 16.7 µM (inactive); in the test on HCT-15, 15.6 µM; with LOX IMVI it was 13.6 µM (inactive); with M19-MEL, 14.8 µM (inactive); in the test on NCI-H23, 18.4 µM (inactive); with NCI-H460 it was 10 µM (inactive). Also, the GI50 with OVCAR-3 was 17.2 µM (inactive); in the test on RPMI-8226 it was 16.6 µM (inactive); with SF-539 it was 16.5 µM (inactive); in the test with SK-OV-3 it was 17.6 µM (inactive); in the test with SN12C, 15.1 µM (inactive); in the test with SNB-19, 17.2 µM (inactive). The GI50 was 17.7 µM (inactive) in the test on SNB-78, 18.2 µM (inactive) in the test on SW-620, 10.9 µM (inactive) with U-251 and 18.3 µM (inactive) in the test with UACC-62.

`COc1ccc(Cc2nc3ccccc3s2)cc1OC`: the GI50 with A498 is 23.7 µM (inactive); in the test with CAKI-1, 15.5 µM (inactive); with DMS-273, 15.6 µM (inactive); in the test on HCT-15 it was 24.2 µM; in the test with M19-MEL it was 15.6 µM (inactive); in the test with NCI-H23, 18.1 µM (inactive). Moreover, the GI50 in the test on NCI-H460 is 19.7 µM (inactive); in the test on OVCAR-3, 17.3 µM (inactive); in the test on RPMI-8226, 23.7 µM (inactive); with SF-539 it was 17.3 µM (inactive); with SK-OV-3 it was 28.2 µM (inactive); in the test on SN12C, 17.1 µM (inactive). The GI50 in the test on SNB-19 is 32.5 µM (inactive); in the test with SNB-78 it was 19.8 µM (inactive); in the test with SW-620, 18.5 µM (inactive); in the test with U-251, 14.6 µM (inactive); in the test on UACC-62, 17.3 µM (inactive).

For `COc1ccc(SS(=O)(=O)c2ccc(OC)cc2)cc1`, the GI50 in the test with A498 is 17.2 µM (inactive); in the test on CAKI-1, 22.5 µM (inactive); in the test on HCT-15 it was 36.7 µM; with LOX IMVI, 17.5 µM (inactive); with M19-MEL, 19.5 µM (inactive); in the test with NCI-H23, 26.1 µM (inactive). The GI50 was 38.6 µM (inactive) in the test with NCI-H460; 18.2 µM (inactive) in the test on OVCAR-3; 27.5 µM (inactive) in the test on RPMI-8226; 18.8 µM (inactive) with SF-539; 34.2 µM (inactive) in the test with SK-OV-3; 20.3 µM (inactive) in the test with SN12C. For the same compound, the GI50 in the test on SNB-19 was 24.4 µM (inactive); with SNB-78, 53.7 µM (inactive); in the test on SW-620, 3.69 µM (inactive); with U-251, 14.2 µM (inactive); with UACC-62, 20 µM (inactive).

For the compound `C[C@@H]1C(=O)CC2C(C)(C)CCC[C@]2(C)[C@@]12CC[C@]1(C=COC1)O2` (some centres undefined), the GI50 with CAKI-1 is 64.3 µM (inactive); with DMS-273, 34.2 µM (inactive); in the test on HCT-15, 30.5 µM; in the test with LOX IMVI, 33.4 µM (inactive); with M19-MEL, 38.1 µM (inactive); in the test with NCI-H460 it was 32.8 µM (inactive). Moreover, the GI50 is 36.4 µM (inactive) in the test on OVCAR-3; 39.5 µM (inactive) in the test on SF-539; 27.5 µM (inactive) with SK-OV-3; 18.7 µM (inactive) in the test on SN12C; 61 µM (inactive) in the test with SNB-19; 41.2 µM (inactive) in the test on SNB-78. Also, the GI50 is 50.8 µM (inactive) in the test with SW-620 and 35.4 µM (inactive) in the test on UACC-62.

For `O=c1c(O)c(-c2ccccc2)n(O)c2ccc(Cl)cc12`, the GI50 with A498 is 29.2 µM (inactive); in the test with CAKI-1 it was 29.9 µM (inactive); in the test with DMS-273, 20.3 µM (inactive); in the test with HCT-15, 16 µM; in the test with LOX IMVI, 11.4 µM (inactive); in the test with NCI-H23, 34.7 µM (inactive). Besides, the GI50 with NCI-H460 was 23.6 µM (inactive); with OVCAR-3, 32.3 µM (inactive); in the test on RPMI-8226, 23.4 µM (inactive); in the test on SF-539, 20 µM (inactive); with SK-OV-3, 30.8 µM (inactive); with SN12C it was 20.8 µM (inactive). Besides, the GI50 with SNB-19 is 34.2 µM (inactive); in the test on SNB-78 it was 37.3 µM (inactive); with SW-620, 16.6 µM (inactive); with U-251, 25.8 µM (inactive); in the test on UACC-62, 24.5 µM (inactive).

Take `CC(C)(C)C#C[P+](c1ccccc1)(c1ccccc1)c1ccccc1`: the GI50 with A498 was 0.23 µM (active); with CAKI-1 it was 0.804 µM (active); in the test on HCT-15 it was 0.655 µM; in the test on LOX IMVI it was 0.328 µM (active); in the test with NCI-H23, 0.353 µM (active); in the test with NCI-H460, 0.152 µM (active). The GI50 in the test with OVCAR-3 was 0.351 µM (active); in the test with RPMI-8226 it was 0.0377 µM (active); in the test with SF-539, 0.373 µM (active); in the test on SK-OV-3, 0.655 µM (active); with SN12C, 0.192 µM (active); with SNB-19, 0.274 µM (active). For the same compound, the GI50 with SNB-78 was 0.339 µM (active); with SW-620 it was 0.152 µM (active); in the test on U-251 it was 0.119 µM (active); in the test with UACC-62, 0.297 µM (active).

`CC1=C(C(=O)Nc2ccc([N+](=O)[O-])cc2)C(c2ccc3c(c2)OCO3)C(C(=O)Nc2ccc([N+](=O)[O-])cc2)=C(C)N1`: the GI50 in the test on A498 was 14.2 µM (inactive); in the test with CAKI-1 it was 23.7 µM (inactive); with DMS-273, 9.77 µM (inactive); with HCT-15, 8.09 µM; in the test with M19-MEL it was 13.3 µM (inactive); in the test with NCI-H23, 5.78 µM (inactive). Moreover, the GI50 in the test with NCI-H460 was 10 µM (inactive); with OVCAR-3 it was 6.43 µM (inactive); with RPMI-8226, 5.04 µM (inactive); in the test with SF-539, 27.7 µM (inactive); in the test with SK-OV-3 it was > 100 µM (inactive); with SN12C it was 38.3 µM (inactive). Further, the GI50 was > 100 µM (inactive) in the test with SNB-19; 68.4 µM (inactive) with SNB-78; 51.9 µM (inactive) with SW-620; 30.1 µM (inactive) in the test on U-251; 5.21 µM (inactive) with UACC-62.

Regarding `CC(C)NCC(O)COC(=O)c1cccs1` (centres undefined), the GI50 in the test on CAKI-1 is > 100 µM (inactive); in the test on DMS-273, > 100 µM (inactive); in the test with HCT-15, above 100 µM; in the test with LOX IMVI, > 100 µM (inactive); in the test on M19-MEL, > 100 µM (inactive); in the test with NCI-H23, > 100 µM (inactive). In addition, the GI50 with NCI-H460, in the test with OVCAR-3, with RPMI-8226, with SK-OV-3, in the test with SN12C and in the test with SNB-19 was > 100 µM (inactive) in each case. Further, the GI50 in the test with SNB-78, in the test with SW-620 and in the test with UACC-62 was > 100 µM (inactive) each time.

For the compound `Cc1cc(=O)oc2cc(OCCCOc3ccc4c(C)cc(=O)oc4c3)ccc12`, the GI50 with A498 is > 100 µM (inactive); with DMS-273, 91.4 µM (inactive); in the test with HCT-15, above 100 µM; in the test with LOX IMVI it was > 100 µM (inactive); with M19-MEL, > 100 µM (inactive); in the test with NCI-H23, > 100 µM (inactive). Besides, the GI50 in the test with NCI-H460 was > 100 µM (inactive); with OVCAR-3, > 100 µM (inactive); in the test on RPMI-8226 it was > 100 µM (inactive); in the test with SF-539, > 100 µM (inactive); with SN12C, > 100 µM (inactive); in the test on SNB-19, 57.9 µM (inactive). The GI50 in the test with SW-620, with U-251 and in the test on UACC-62 was > 100 µM (inactive) in each case.

Regarding `O=C(CCn1[nH]c(=O)c(Cl)c(Cl)c1=O)NNC(=O)C[n+]1ccccc1`, the GI50 was > 100 µM (inactive) in the test on A498; > 100 µM (inactive) in the test with CAKI-1; > 100 µM (inactive) in the test on DMS-273; above 100 µM with HCT-15; > 100 µM (inactive) in the test with LOX IMVI; > 100 µM (inactive) in the test with M19-MEL. Further, the GI50 with NCI-H23, in the test with NCI-H460, with OVCAR-3, in the test with RPMI-8226, in the test on SF-539 and with SK-OV-3 was > 100 µM (inactive) each time. Further, the GI50 in the test on SN12C, with SNB-19, in the test with SW-620 and with UACC-62 was > 100 µM (inactive) throughout.

In the case of `O=C(O)CN(c1ccccc1)S(=O)(=O)c1ccc(NC(=O)c2ccccc2)cc1`, the GI50 was > 100 µM (inactive) with A498; > 100 µM (inactive) with CAKI-1; > 100 µM (inactive) with DMS-273; above 100 µM in the test on HCT-15; > 100 µM (inactive) in the test on LOX IMVI; > 100 µM (inactive) in the test on M19-MEL. Besides, the GI50 with NCI-H23, in the test on NCI-H460, with RPMI-8226, with SF-539, in the test on SK-OV-3 and with SN12C was > 100 µM (inactive) each time. The GI50 in the test on SNB-19, in the test with SW-620, in the test with U-251 and in the test on UACC-62 was > 100 µM (inactive) throughout.

For the compound `COc1cc(C[C@H]2c3cc(OC)c(OC)cc3CCN2C)c(Oc2cc3c(cc2OC)-c2c(OC)c(OC)cc4c2[C@H](C3)N(C)CC4)cc1OC` [THALICARPINE], the GI50 in the test with A498 was 7.06 µM (inactive); in the test on CAKI-1, 6.22 µM (inactive); in the test with DMS-273, 10.7 µM (inactive); in the test on HCT-15 it was 5.04 µM; in the test with LOX IMVI, 7.21 µM (inactive); with M19-MEL, 8.87 µM (inactive). Besides, the GI50 in the test on MDA-MB-435 is 5.16 µM (inactive); with MDA-N, 4.13 µM (inactive); in the test on NCI-H23, 12.4 µM (inactive); in the test with NCI-H460, 9.16 µM (inactive); in the test with OVCAR-3 it was 10.5 µM (inactive); in the test with RPMI-8226, 8.04 µM (inactive). For the same compound, the GI50 was 8.28 µM (inactive) in the test with SF-539; 12.4 µM (inactive) in the test on SN12C; 16.7 µM (inactive) in the test with SNB-19; 7.53 µM (inactive) in the test on SW-620; 3.9 µM (inactive) in the test with U-251; 6.65 µM (inactive) in the test on UACC-62.
